Patent US20210379095A1, “Methods and Combination Therapy to Treat Biliary Tract Cancer” (ARRAY BIOPHARMA INC., priority 2018, published 2021)

Legend:
[1] = test system: advanced or metastatic BTC; details: binimetinib monotherapy, advanced or metastatic BTC patients; cited from earlier work
[2] = test system: BTC cell lines (SNU245, SNU308, SNU478, SNU869, SNU1079, SNU1196, TFK1, and HuCCT1); test: MTT cell viability assay; assay type: cell-based; details: eight BTC cell lines, 72 hours exposure
Procedure: (§1) The effect of binimetinib, 5-fluorouracil (5-FU), or combination of these drugs on cell viability was evaluated using eight BTC cell lines (SNU245, SNU308, SNU478, SNU869, SNU1079, SNU1196, TFK1, and HuCCT1). As capecitabine is converted to 5-FU in vivo, 5-FU was used as an […] of oral administration of capecitabine in this preclinical study in cell lines. In brief, confluent monolayers, which had been grown in 96 well plates, were exposed to drugs for 72 hours. Subsequently, cell viability was measured at 540 nm with a Multiskan GO microplate reader using a commercially available MTT assay, according to the manufacturer's directions. The Chou-Talalay method was used to assess a combination effect. Cells were also treated with drugs for 48 hours and the expression of thymidylate synthase (TS), programmed death-ligand 1 (PD-L1), and β-actin was determined using western blot analysis according to a published protocol. Actin was included as a loading control.

[3] = test system: thymidylate synthase (TS); test: Western blot of protein expression in BTC cells; assay type: cell-based; details: 48 hours
Procedure: as §1, with “In brief, confluent monolayers, which had been grown in 96 well plates, were exposed to drugs for 72 hours.” left out, “Cells were also treated with drugs for 48 hours and the expression of thymidylate synthase (TS), programmed death-ligand 1 (PD-L1), and β-actin was determined using western blot analysis according to a published protocol.” left out

[4] = test system: programmed death-ligand 1 (PD-L1); test: Western blot of protein expression in BTC cells; assay type: cell-based; details: 48 hours
Procedure: as §1

Row | SMILES | DCR [1] [%] | ORR [1] [%] | OS [1] [months] | PFS [1] [months] | cell viability [2] | thymidylate synthase (TS) expression [3] | PD-L1 expression [4]
1 | Cn1cnc2c(F)c(Nc3ccc(Br)cc3F)c(C(=O)NOCCO)cc21 [binimetinib, 6-(4-bromo-2-fluorophenylamino)-7-fluoro-3-methyl-3H-benzoimidazole-5-carboxylic acid (2-hydroxyethoxy)-amide] | 51 | 8 | 4.8 | 2.1 | significant decreases in cell viability | downregulated | 
2 | O=c1[nH]cc(F)c(=O)[nH]1 [5-FU, 5-fluorouracil] |  |  |  |  |  | upregulated | induced PD-L1 expression
